Measurements as given in patent publication US8895313B2, “Ligands for aggregated tau molecules” (Wista Laboratories Ltd., priority 2008, dated 2014).

Molecular target: PHF (paired helical filaments) isolated from the brain of an Alzheimer's disease patient (Homo sapiens, UniProt P10636)
Assay: Competitive binding assay: displacement of primulin fluorescence from PHFs
Set-up: key to P50: fl indicates that the compound is fluorescent. Consequently, binding levels for the compound in the competition binding assay cannot be determined by fluorescent spectroscopy
Settings: compound fluorescent, no P50 obtainable
Experimental: The DSB compounds were tested for their ability to bind to PHF in a competition-style assay.
If a test compound that also binds to PHFs with the same or greater affinity is added, it will displace the reference ligand and reduce the fluorescence signal. In the present assay, the reference compound is primulin, which was added at 1 μM. Test compounds were added at concentrations from 0.05 to 1 μM. The P50 for a test compound is defined as the concentration of compound that reduces the primulin signal to 50% of the control value. This value is, therefore, not an absolute affinity, but a relative affinity compared to the affinity of primulin.
PHFs were isolated from the brain of an Alzheimer's disease patient essentially as described by Wischik et al. (Neurobiology of Aging, Vol. 16, pp. 409-431, 1995). The IFII fraction was isolated by centrifugation on a sucrose gradient as described in the PhD thesis of C. M. Wischik, and was further extracted into an ‘abc sup’ as described by C. M. Wischik (Thesis “The structure and biochemistry of paired helical filaments in Alzheimer's disease” Part I and II; Cambridge University, 1989).
The assay for ligand activity was performed in 96 well plates (Nunc Cat. No. 236108). The test compound at the required concentration was mixed with PHFs, then primulin was added to give a final concentration of 1 μM and a total volume of 100 μl. The concentration of PHFs added was determined for each preparation to give an adequate fluorescence signal, and was typically in the range 1-2 μl/100 μl. The test compounds were typically dissolved in DMSO to give a final concentration of 10% DMSO in the assay. The control fluorescence, in the absence of PHFs, was also measured in the presence of 10% DMSO.
The fluorescence was measured in a Varian Carey Eclipse Fluorescence Spectrophotometer, with the […] wavelength at 480 nm. Excitation spectra were recorded and corrected by subtraction of the signal measured in the absence of PHFs, using the Varian software. The fluorescence signal at the peak […] wavelength of 420 nm was measured from the corrected spectra. The fluorescence values were plotted as a function of concentration of test compound, and the value for P50 measured from the graph.

Sequence of PHF (paired helical filaments) isolated from the brain of an Alzheimer's disease patient (P10636 623-708 limits assumed): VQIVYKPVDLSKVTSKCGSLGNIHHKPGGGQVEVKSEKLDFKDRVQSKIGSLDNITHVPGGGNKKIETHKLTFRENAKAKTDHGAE

| SMILES | P50 |
| --- | --- |
| Cc1ccc2nc(-c3ccc(/C=C/c4ccc(N(C)C)cc4)cc3)sc2c1 [BEMA-08] | fl |
| Oc1ccc(/C=C/c2ccc(-c3nc4ccc(O)cc4s3)cc2)c(C(F)(F)F)c1 [BEHF-07] | fl |
| Oc1ccc2nc(-c3ccc(/C=C/c4ccc(F)cc4)cc3)sc2c1 [BEHF-01] | fl |
| COc1ccc2nc(-c3ccc(/C=C/c4ccc(F)cc4)cc3)sc2c1 [BEFA-10] | fl |

Same assay, conditions: concentration that reduces the signal of 1 μM primulin to 50% of control; relative affinity

| SMILES | P50 |
| --- | --- |
| COc1ccc2nc(-c3ccc(NC(=O)c4ccc(C(F)(F)F)cc4)cc3)sc2c1 [ABFMA-03] | no effect |
| Cc1ccc2nc(-c3ccc(NC(=O)c4ccc(F)nc4)cc3)cn2c1 [AIPN-06] | no effect |
| COc1cc(NC(=O)c2ccccc2N(C)C)ccc1-c1nc2ccc(O)cc2s1 [ABHA-04] | no effect |
| COc1ccc2nc(-c3ccc(/C=C/c4ccc(N)cc4)cc3)sc2c1 [BEMOA-06] | no effect |
| COc1ccc2nc(-c3ccc(NC(=O)c4ccc(OCC(F)(F)F)cc4)cc3)sc2c1 [ABFMA-19] | no effect |
| Oc1ccc2nc(-c3ccc(/C=C/c4ccc(NCCCC(F)(F)F)cc4)cc3)sc2c1 [BEHF-04] | no effect |
| COc1ccc2nc(-c3ccc(/C=C/c4ccc(OCC(F)(F)F)cc4)cc3)sc2c1 [BEFA-04] | no effect |
| COc1ccc2nc(-c3ccc(NC(=O)c4ccc(N)cc4C(F)(F)F)cc3)sc2c1 [ABFMA-16] | no effect |
| Cc1ccc2nc(-c3ccc(NC(=O)c4cccc(N(C)C)c4)cc3)sc2c1 [ABAA-08] | no effect |
| COc1ccc2nc(-c3ccc(NC(=O)c4ccc(F)cc4)cc3)sc2c1 [ABMFMA-01] | no effect |
| COc1ccc2nc(-c3ccc(/C=C/c4ccc(NCCCC(F)(F)F)cc4)cc3)sc2c1 [BEFA-09] | no effect |
| COc1ccc2nc(-c3ccc(NC(=O)c4cccc(C(F)(F)F)c4)cc3)sc2c1 [ABFMA-02] | no effect |
| Cc1ccc2nc(-c3ccc(/C=C/c4cccc(N)c4)cc3)sc2c1 [BEMA-06] | no effect |
| Cc1ccc2nc(-c3ccc(/N=N/c4c(C(F)(F)F)cc(O)cc4C(F)(F)F)cc3)sc2c1 [BDF-08] | no effect |
| COc1ccc2nc(-c3ccc(/C=C/c4ccccc4C(F)(F)F)cc3)sc2c1 [BEFA-01] | no effect |
| Cc1ccc2nc(-c3ccc(NC(=O)c4cccc(N)c4)cc3)sc2c1 [ABAA-05] | no effect |
| COc1ccc2nc(-c3ccc(NC(=O)c4ccccc4C(F)(F)F)cc3)sc2c1 [ABFMA-01] | no effect |
| Cc1ccc2nc(-c3ccc(NC(=O)c4ccncc4)cc3)cn2c1 [AIPN-03] | no effect |
| Cc1ccc2nc(-c3ccc(NC(=O)c4ccc(F)c(C(F)(F)F)c4)cc3)cn2c1 [AIPN-17] | no effect |
| COc1ccc2nc(-c3ccc(/C=C/c4ccc(C(F)(F)F)cc4)cc3)sc2c1 [BEFA-03] | no effect |
| COc1cccc(/C=C/c2ccc(-c3nc4ccc(C)cc4s3)cc2)c1 [BEMA-12] | no effect |

Same assay, conditions: concentration that reduces the signal of 1 μM primulin to 50% of control; relative affinity; read-out: P50

| SMILES | IC50 [µM] |
| --- | --- |
| Cc1ccc2nc(-c3ccc(NC(=O)c4cc(F)c(N(C)C)c(F)c4)cc3)cn2c1 [AIPN-16] | > 1 |
| CNc1ccc(C(=O)Nc2ccc(-c3cn4cc(C)ccc4n3)cc2)cc1F [AIPN-20] | 0.27 |
| COc1ccc(C(=O)Nc2ccc(-c3cn4cc(C)ccc4n3)cc2)cc1C(F)(F)F [AIPN-28] | > 1 |
| Cc1ccc2nc(-c3ccc(NC(=O)c4ccc(N(C)C)c(F)c4)cc3)cn2c1 [AIPN-22] | 0.76 |
| Oc1ccc(/N=N/c2ccc(-c3nc4ccc(O)cc4s3)cc2)c(C(F)(F)F)c1 [BDF-04] | 0.08 |
| COc1ccc2nc(-c3ccc(NC(=O)c4ccc(Cl)nc4)cc3)sc2c1 [ABMFMA-03] | 0.34 |
| CNc1ccc(C(=O)Nc2ccc(-c3cn4cc(C)ccc4n3)cc2)cc1 [AIPN-12] | 0.33 |
| Nc1ccc(C(=O)Nc2ccc(-c3nc4ccc(O)cc4s3)cc2)cc1C(F)(F)F [ABFHA-02] | 0.34 |
| COc1ccc2nc(-c3ccc(NC(=O)c4ccc(Br)c([N+](=O)[O-])c4)cc3)sc2c1 [ABMFMA-08] | > 1 |
| Cc1ccc2nc(-c3ccc(/N=N/c4cc(C(F)(F)F)ccc4O)cc3)sc2c1 [BDF-02] | 0.46 |
| COc1ccc2nc(-c3ccc(NC(=O)c4ccccc4N)cc3)sc2c1 [ABMA-04] | 0.87 |
| Cc1ccc2nc(-c3ccc(/N=N/c4ccc(N(C)C)cc4)cc3)cn2c1 [DPN-001] | 0.03 |
| Cc1ccc2nc(-c3ccc(NC(=O)c4ccc([N+](=O)[O-])cc4)cc3)cn2c1 [AIPN-08] | 0.1 |
| Cc1ccc2nc(-c3ccc(NC(=O)c4ccccn4)cc3)cn2c1 [AIPN-05] | 0.51 |
| CN(C)c1ccc(C(=O)Nc2ccc(-c3cn4ccccc4n3)cc2)cc1 [AIPN-01] | > 1 |
| COc1ccc2nc(-c3ccc(NC(=O)c4ccc(I)c([N+](=O)[O-])c4)cc3)sc2c1 [ABMFMA-09] | 0.21 |
| Oc1ccc(/N=N/c2ccc(-c3nc4ccc(O)cc4s3)cc2O)c(C(F)(F)F)c1 [BDF-16] | 0.03 |
| COc1cccc2sc(-c3ccc(/N=N/c4ccc(O)cc4C(F)(F)F)cc3)nc12 [BDF-13] | 0.35 |
| COc1ccc2nc(-c3ccc(NC(=O)c4cccc(N)c4)cc3)sc2c1 [ABMA-05] | 0.85 |

| SMILES | IC50 [µM] |
| --- | --- |
| COc1ccc2sc(-c3ccc(/N=N/c4ccc(C(F)(F)F)cc4O)cc3)nc2c1 [BDF-10] | 0.87 |
| Oc1ccc(/N=N/c2ccc(-c3nc4ccc(O)cc4s3)c(O)c2)c(C(F)(F)F)c1 [BDF-14] | 0.02 |
| CN(C)CCOc1ccc2nc(-c3ccc(NC(=O)c4ccc([N+](=O)[O-])c(C(F)(F)F)c4)cc3)sc2c1 [ABDMAA-02] | > 1 |
| COc1ccc2nc(-c3ccc(NC(=O)c4cccc(N(C)C)c4)cc3)sc2c1 [ABMA-08] | ~1.2 |
| Cc1ccc2nc(-c3ccc(NC(=O)c4ccc([N+](=O)[O-])c(C(F)(F)F)c4)cc3)cn2c1 [AIPN-09] | 0.34 |
| Oc1ccc(/N=N/c2ccc(-c3nc4ccc(O)cc4s3)c(O)c2)c(OCCCC(F)(F)F)c1 [BDF-15] | 0.14 |
| Oc1ccc(/N=N/c2ccc(-c3nc4ccc(O)cc4s3)cc2O)c(OC(F)(F)F)c1 [BDF-17] | 0.03 |
| COc1cc(NC(=O)c2ccc(F)c([N+](=O)[O-])c2)ccc1-c1nc2ccccc2s1 [AUB-01] | > 1 |
| COCCOCCOCCOc1cc(NC(=O)c2ccc(F)c([N+](=O)[O-])c2)ccc1-c1nc2ccccc2s1 [AUB-02] | > 1 |
| COc1ccc(C(=O)Nc2ccc(-c3cn4cc(C)ccc4n3)cc2)cc1 [AIPN-13] | 0.63 |
| O=C(Nc1ccc(-c2nc3ccc(O)cc3s2)c(O)c1)c1cc(OC(F)(F)F)ccc1O [ABFHA-06] | 0.39 |
| COc1cc(F)c(C(=O)Nc2ccc(-c3cn4cc(C)ccc4n3)cc2)c(F)c1 [AIPN-25] | > 1 |
| Cc1ccc2nc(-c3ccc(NC(=O)c4ccc(N)cc4)cc3)sc2c1 [ABAA-06] | 0.52 |
| O=C(Nc1ccc(-c2nc3ccc(O)cc3s2)c(O)c1)c1ccc(F)cc1 [ABFHA-07] | 0.1 |
| COc1ccc2nc(-c3ccc(NC(=O)c4ccc(OC(C)=O)cc4)cc3)sc2c1 [ABMA-10] | 0.31 |
| COc1ccc2nc(-c3ccc(/N=N/c4ccc(O)cc4C(F)(F)F)cc3)sc2c1 [BDF-03] | 0.13 |
| O=C(Nc1ccc(-c2nc3ccc(O)cc3s2)cc1)c1ccc(OCC(F)(F)F)cc1 [ABFHA-03] | 0.1 |
| Oc1ccc(/N=N/c2ccc(-c3nc4ccc(OC(F)(F)F)cc4s3)cc2)cc1 [BDF-07] | 0.72 |
